For this data set, the system named is OsACCase gene. The experiment in a line: Base editing (pZRH-PBE + individual sgRNAs) of OsACCase functional domain in transgenic M0 rice plants. The format is in vivo. The following applies: for Frequency of indel (%) / Frequency of substitution (%) / No. of WT / No. of indel / No. of substitution: transgenic M0 plants; for No. of WT / No. of indel / No. of substitution: per sgRNA target. An excerpt:
For individual cloning, the following method is used. APOBEC1, partial nCas9 and UGI sequences (SEQ ID NO: 129) without BsaI were synthesized commercially (GenScript, Nanjing, China) and cloned into the pUC57 (SEQ ID NO: 130) as intermediate vector. […] The full length APOBEC1-nCas9-UGI was excised using XmaJI and SacI, then was subcloned into pHUE411 that had been digested using the same two enzymes. The resultant vector pZRH-PBE (SEQ ID NO: 133) was used to construct sgRNA expression plasmids using restriction enzyme site BsaI.

Where [1] appears, read: edited allele with the substitution of the same table line.

In the case of “R20: sgRNA in pZRH-PBE; OsACCase target site TTTACACTTACATTTGTGACTGG (SEQ ID NO: 73) (expressed or natural sequence; the letters are possibly those of the target site)”, the “Frequency of indel (%)” value is on record as 0.0%, the “Frequency of substitution (%)” value is 16.7%, the “No. of WT” value is 11 and the No. of indel is reported as 0. Also, the No. of substitution was determined as 2. For the same substance, under setting [1], the No. of alleles worked out at 1. Also, where the note is “unedited target site sequence”, the No. of alleles worked out at 2.

With “R24: sgRNA in pZRH-PBE; OsACCase target site TATGTTCCTGCCTACATTGGTGG (SEQ ID NO: 83) (expressed or natural sequence; target site or template, no part of the molecule)”, the “Frequency of indel (%)” value turned out to be 14.3%, the “Frequency of substitution (%)” value is 9.5%, the “No. of WT” value is 16 and the No. of indel was 3. In addition, the No. of substitution was 2. Further, the No. of alleles under setting [1] was 2. The No. of alleles (unedited target site sequence) was determined as 2.

As for “R34: sgRNA in pZRH-PBE; OsACCase target site CCAGTGGGTGTGATAGCTGTGGA (SEQ ID NO: 109) (expressed or natural sequence; the letters are possibly those of the target site)”, the “Frequency of indel (%)” value is reported as 0.0%, the “Frequency of substitution (%)” value is recorded as 71.4%, the “No. of WT” value is 4 and the No. of indel is 0. In addition, the No. of substitution stood at 10. For the same substance, the No. of alleles (edited allele with the substitution of the same table line, edited allele (SEQ ID NO: 110)) is 3. Moreover, where the note is “edited allele with the substitution of the same table line, edited allele (SEQ ID NO: 111)”, the No. of alleles is listed as 2. The No. of alleles (edited allele with the substitution of the same table line, edited allele (SEQ ID NO: 112)) was 4. In addition, the No. of alleles (unedited target site sequence) came out at 7.

For “R8: sgRNA in pZRH-PBE; OsACCase target site TTCCTCGTGCTGGACAAGTGTGG (SEQ ID NO: 32) (expressed or natural sequence; target site or template, no part of the molecule)”, the “Frequency of indel (%)” value was 10.5%, the “Frequency of substitution (%)” value was 59.6%, the “No. of WT” value turned out to be 17 and the No. of indel is 6. The No. of substitution turned out to be 34. In addition, for the setting “unedited target site sequence”, the No. of alleles was found to be 9.

For “R33: sgRNA in pZRH-PBE; OsACCase target site CCTTTGTCTACATTCCCATGGCT (SEQ ID NO: 107) (expressed or natural sequence; target site or template, no part of the molecule)”, the “Frequency of indel (%)” value turned out to be 5.9%, the “Frequency of substitution (%)” value amounted to 41.2%, the “No. of WT” value is 9 and the No. of indel stood at 1. Moreover, the No. of substitution was 7. Also, the No. of alleles under setting [1] was 1. Also, under “unedited target site sequence”, the No. of alleles is 1.

As to “R38: sgRNA in pZRH-PBE; OsACCase target site CCTGTTGCATACATTCCTGAGAA (SEQ ID NO: 122) (expressed or natural sequence; target site or template, no part of the molecule)”, the “Frequency of indel (%)” value is 28.6%, the “Frequency of substitution (%)” value was 35.7%, the “No. of WT” value stood at 5 and the No. of indel is given as 4. Besides, the No. of substitution was 5. The No. of alleles (unedited target site sequence) is on record as 4.

For “R40: sgRNA in pZRH-PBE; OsACCase target site CCTATTATTCTTACAGGCTATTC (SEQ ID NO: 127) (chemistry not fully specified; the letters are possibly those of the target site)”, the “Frequency of indel (%)” value is 6.7%, the “Frequency of substitution (%)” value is 13.3%, the “No. of WT” value amounted to 12 and the No. of indel stood at 1. The No. of substitution is recorded as 2. Under setting [1], the No. of alleles is on record as 1. Besides, the No. of alleles (unedited target site sequence) is reported as 1.

The record behind these values is US12612622B2, “Targeted mutagenesis using base editors” (Qi Biodesign Biotechnology Company Limited, priority 2018, dated 2026).
